# According to ChEMBL document CHEMBL1201862, “PubChem BioAssay data set” (2004):
# Calls of active or inactive are those of the source.
# Key:
# [1] = target: T1, Microphthalmia-associated transcription factor (Homo sapiens, UniProt O75030); assay: TRPM1 promoter luciferase signal decrease, dose response, MITF inhibitor project, cell-based, SK-MEL-5, cherry-picked, set 3 (AID 493073); type: functional
# T1 sequence (O75030 whole entry): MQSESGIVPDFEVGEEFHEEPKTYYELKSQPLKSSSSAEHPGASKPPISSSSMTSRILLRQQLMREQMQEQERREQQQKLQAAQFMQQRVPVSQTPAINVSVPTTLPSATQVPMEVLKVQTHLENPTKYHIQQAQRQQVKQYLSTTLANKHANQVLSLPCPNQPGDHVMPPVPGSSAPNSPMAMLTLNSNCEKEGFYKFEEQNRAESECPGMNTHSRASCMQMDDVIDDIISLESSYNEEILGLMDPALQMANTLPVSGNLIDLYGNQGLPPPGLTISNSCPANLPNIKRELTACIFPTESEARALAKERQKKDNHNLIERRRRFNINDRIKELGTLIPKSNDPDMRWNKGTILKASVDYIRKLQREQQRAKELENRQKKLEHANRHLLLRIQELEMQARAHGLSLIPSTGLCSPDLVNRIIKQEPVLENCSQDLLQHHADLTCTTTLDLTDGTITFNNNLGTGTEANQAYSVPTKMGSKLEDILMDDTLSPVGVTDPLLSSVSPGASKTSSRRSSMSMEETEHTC
# HT-1080 = assay: cytotoxicity in HT1080 fibrosarcoma cells, cell-based, fluorescence readout (AID 620); type: functional; conditions: Homo sapiens
# [2] = target: Luciferin 4-monooxygenase (Photinus pyralis, UniProt P08659); assay: Counter Screen for Luciferase-based Assay Positives. [Related pubchem assays: 620, 618, 411 ]
# Luciferin 4-monooxygenase, sequence (P08659 whole entry, the tested form may be a part): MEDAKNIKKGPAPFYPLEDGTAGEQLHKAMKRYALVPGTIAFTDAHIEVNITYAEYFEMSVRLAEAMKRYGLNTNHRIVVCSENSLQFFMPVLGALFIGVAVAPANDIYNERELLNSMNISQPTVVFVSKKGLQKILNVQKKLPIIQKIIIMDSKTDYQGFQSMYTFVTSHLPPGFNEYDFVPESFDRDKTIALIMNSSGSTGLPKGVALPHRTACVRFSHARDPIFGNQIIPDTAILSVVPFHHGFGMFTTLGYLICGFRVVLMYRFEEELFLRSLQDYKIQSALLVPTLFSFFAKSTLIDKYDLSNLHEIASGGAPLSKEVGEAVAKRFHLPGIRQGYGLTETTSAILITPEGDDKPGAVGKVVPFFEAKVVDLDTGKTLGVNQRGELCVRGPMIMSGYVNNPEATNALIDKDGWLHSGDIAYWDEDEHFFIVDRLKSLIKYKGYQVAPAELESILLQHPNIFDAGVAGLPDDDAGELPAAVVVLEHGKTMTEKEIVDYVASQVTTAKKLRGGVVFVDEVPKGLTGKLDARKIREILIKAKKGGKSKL
# Fatty acid synthase [3] = target: T2, Fatty acid synthase (Homo sapiens, UniProt P49327); assay: FAS thioesterase domain inhibitors, dose response, biochemical, endpoint fluorescence intensity, uHTS hits (AID 624327); type: functional;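 note: fluorescence from hydrolysis of an O-methyl fluorescein acyl ester substrate by the enzyme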
# T2 sequence (P49327 whole entry, the tested form may be a part): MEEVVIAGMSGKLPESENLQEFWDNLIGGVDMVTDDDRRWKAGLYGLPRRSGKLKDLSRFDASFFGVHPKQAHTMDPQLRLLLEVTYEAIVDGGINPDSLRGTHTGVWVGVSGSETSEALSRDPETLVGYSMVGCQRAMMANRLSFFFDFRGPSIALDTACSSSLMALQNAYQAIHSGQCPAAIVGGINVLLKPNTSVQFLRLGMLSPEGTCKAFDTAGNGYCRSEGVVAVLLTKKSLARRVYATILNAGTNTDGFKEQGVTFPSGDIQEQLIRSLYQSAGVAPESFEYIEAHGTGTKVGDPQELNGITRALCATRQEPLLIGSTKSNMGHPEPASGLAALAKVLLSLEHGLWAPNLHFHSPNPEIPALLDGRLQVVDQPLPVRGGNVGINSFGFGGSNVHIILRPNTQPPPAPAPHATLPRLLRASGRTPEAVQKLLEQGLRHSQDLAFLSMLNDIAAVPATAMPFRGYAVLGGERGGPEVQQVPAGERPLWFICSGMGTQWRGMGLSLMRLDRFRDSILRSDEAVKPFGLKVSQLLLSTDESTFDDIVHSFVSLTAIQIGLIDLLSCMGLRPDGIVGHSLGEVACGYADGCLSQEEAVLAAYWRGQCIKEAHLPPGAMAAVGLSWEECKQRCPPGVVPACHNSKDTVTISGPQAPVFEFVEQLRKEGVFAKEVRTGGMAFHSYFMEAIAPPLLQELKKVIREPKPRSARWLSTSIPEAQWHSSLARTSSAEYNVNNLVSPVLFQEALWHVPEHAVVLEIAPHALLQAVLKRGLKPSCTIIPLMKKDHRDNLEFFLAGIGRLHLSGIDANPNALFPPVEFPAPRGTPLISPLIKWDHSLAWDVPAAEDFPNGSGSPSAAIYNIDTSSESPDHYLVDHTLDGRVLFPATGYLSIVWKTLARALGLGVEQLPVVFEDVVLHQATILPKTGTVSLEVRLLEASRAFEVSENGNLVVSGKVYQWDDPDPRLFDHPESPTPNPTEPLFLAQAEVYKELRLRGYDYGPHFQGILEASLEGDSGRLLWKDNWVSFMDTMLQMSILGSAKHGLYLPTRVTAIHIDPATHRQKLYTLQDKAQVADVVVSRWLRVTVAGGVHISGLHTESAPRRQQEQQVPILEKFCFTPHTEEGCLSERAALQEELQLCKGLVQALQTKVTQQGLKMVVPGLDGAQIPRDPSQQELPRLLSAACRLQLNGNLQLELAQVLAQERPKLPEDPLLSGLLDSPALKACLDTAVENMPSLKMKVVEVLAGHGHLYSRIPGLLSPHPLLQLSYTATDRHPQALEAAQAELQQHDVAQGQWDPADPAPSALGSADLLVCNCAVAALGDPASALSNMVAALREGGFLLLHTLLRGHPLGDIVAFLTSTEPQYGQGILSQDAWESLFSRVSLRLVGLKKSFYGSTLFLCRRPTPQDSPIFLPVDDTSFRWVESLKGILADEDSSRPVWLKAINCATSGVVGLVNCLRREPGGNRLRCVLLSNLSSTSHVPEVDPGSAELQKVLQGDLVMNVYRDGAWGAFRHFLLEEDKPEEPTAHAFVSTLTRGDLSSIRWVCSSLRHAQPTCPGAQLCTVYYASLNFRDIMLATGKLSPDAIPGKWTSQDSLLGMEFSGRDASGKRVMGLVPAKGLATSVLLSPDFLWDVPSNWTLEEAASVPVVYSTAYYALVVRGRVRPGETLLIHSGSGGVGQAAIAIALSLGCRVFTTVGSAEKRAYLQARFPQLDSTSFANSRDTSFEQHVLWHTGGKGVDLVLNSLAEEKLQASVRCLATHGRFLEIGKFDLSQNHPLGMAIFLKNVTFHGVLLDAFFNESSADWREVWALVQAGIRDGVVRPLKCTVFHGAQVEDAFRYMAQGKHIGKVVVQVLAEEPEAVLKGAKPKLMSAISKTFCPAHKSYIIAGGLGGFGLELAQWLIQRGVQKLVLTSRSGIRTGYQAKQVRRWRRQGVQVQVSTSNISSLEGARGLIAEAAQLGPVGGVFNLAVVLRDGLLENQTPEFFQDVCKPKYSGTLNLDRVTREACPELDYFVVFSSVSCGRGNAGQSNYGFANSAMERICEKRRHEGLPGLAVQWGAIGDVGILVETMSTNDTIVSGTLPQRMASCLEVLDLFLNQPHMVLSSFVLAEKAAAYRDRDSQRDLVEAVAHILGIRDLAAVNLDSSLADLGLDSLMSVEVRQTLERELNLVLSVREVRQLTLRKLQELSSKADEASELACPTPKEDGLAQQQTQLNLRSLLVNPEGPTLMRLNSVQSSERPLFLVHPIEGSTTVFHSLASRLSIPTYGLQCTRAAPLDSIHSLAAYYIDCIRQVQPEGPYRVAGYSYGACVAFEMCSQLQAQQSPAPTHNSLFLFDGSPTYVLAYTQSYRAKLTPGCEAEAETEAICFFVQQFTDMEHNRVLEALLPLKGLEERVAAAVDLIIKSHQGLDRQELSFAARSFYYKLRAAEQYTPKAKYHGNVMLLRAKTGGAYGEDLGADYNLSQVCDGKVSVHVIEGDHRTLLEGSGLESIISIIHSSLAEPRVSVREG
# [4] = THP-1 cell cytotoxicity, dose response, cytotoxicity control for non-replicating M. tuberculosis project (AID 489025); type: functional
# [5] = Vero E6 cell cytotoxicity, dose response, cytotoxicity control for non-replicating M. tuberculosis project, secondary assay (AID 492998); type: functional, VeroE6; conditions: Vero C1008
# [6] = cytotoxicity toward NIH3T3 fibroblasts, dose response, counter-screen, cell-based, ATP luminescence, mouse fibroblasts (AID 2010); type: functional;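 note: cells exposed to compound for about 90 hours before reading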
# Fatty acid synthase [7] = target: T2, Fatty acid synthase; assay: FAS thioesterase domain inhibitors, dose response, biochemical, kinetic fluorescence intensity (AID 624326); type: functional;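 note: rate of fluorescence rise from hydrolysis of a fluorogenic O-methyl fluorescein ester substrate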
# [8] = HepG2 cell cytotoxicity, dose response, cytotoxicity control for non-replicating M. tuberculosis project (AID 489018); type: functional; conditions: Mycobacterium tuberculosis
# [9] = cytotoxicity in HEK-293T cells, dose response, cytotoxicity control for BCR NF-kB inhibitor project, luminescence, B-cell screen hits (AID 489021); type: functional, cell-based;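 note: HEK-293T cells carrying an NF-kB luciferase reporter; cells exposed to compound for about 14 hours before viability readout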
# [10] = inhibitors of firefly luciferase expression or activity, dose response, H4 neuroglioma cells, luminescence (AID 1990); type: functional, cell-based
# [11] = inhibitors of SNCA 5'UTR-driven reporter translation, confirmation, H4 neuroglioma cells, luminescence (AID 1988); type: functional, cell-based
# [12] = Luminescence Cell-Based Dose Response HTS to Identify Inhibitors of 5'UTR Stem-Loop Driven Prion Protein mRNA Translation in H4 Neuroglioblastoma Cells. [Related pubchem assays: 1827 (Project Summary), 1813 (Primary HTS)]; type: functional
# [13] = inhibitors of intracellular T. cruzi replication, confirmation, NIH3T3 host cells, beta-gal luminescence (AID 2044); type: functional, cell-based;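 note: intracellular parasites grown in NIH/3T3 mouse fibroblasts as host cells; luminescent beta-galactosidase reporter signal from transgenic T. cruzi replicating inside host cells; inhibitors lower the luminescence signal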
# cells = type: functional
# Troponin, cardiac muscle = Troponin, cardiac muscle (Homo sapiens, UniProt P19429+P45379+P63316); assay: Fluorescence-based biochemical high throughput dose response assay for activators of the calcium sensitivity of cardiac Regulated Thin Filaments (RTF). [Related pubchem assays (depositor defined):AID493008, AID493018, AID504382, AID504383]; type: protein-complex assay
# Estrogen receptor = target: T3, Estrogen receptor (Homo sapiens, UniProt P03372);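 note: potency for inhibiting coactivator peptide recruitment to the receptor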
# T3 sequence (P03372 whole entry): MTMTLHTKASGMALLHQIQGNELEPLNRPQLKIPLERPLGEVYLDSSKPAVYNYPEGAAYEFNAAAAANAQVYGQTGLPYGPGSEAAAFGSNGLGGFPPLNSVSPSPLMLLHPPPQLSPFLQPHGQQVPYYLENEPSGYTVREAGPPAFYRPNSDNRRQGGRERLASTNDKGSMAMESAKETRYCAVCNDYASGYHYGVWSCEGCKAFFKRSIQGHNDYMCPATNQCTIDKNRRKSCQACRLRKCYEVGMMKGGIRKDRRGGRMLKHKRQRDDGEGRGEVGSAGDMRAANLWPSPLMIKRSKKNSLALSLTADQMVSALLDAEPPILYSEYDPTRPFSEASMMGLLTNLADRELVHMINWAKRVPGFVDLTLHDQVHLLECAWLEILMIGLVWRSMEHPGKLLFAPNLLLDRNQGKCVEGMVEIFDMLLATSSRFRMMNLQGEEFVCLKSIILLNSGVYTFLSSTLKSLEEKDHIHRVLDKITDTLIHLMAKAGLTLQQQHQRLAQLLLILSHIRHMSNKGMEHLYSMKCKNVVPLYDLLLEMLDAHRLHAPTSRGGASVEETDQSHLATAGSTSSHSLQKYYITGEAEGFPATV
# [14] = target: T4, Short transient receptor potential channel 4 (Mus musculus, UniProt Q9QUQ5); assay: mouse TRPC4 channel activators, dose response, cell-based, HEK293 TRPC4/mu-opioid, Fluo-4 calcium (AID 434937); type: functional
# T4 sequence (Q9QUQ5 whole entry): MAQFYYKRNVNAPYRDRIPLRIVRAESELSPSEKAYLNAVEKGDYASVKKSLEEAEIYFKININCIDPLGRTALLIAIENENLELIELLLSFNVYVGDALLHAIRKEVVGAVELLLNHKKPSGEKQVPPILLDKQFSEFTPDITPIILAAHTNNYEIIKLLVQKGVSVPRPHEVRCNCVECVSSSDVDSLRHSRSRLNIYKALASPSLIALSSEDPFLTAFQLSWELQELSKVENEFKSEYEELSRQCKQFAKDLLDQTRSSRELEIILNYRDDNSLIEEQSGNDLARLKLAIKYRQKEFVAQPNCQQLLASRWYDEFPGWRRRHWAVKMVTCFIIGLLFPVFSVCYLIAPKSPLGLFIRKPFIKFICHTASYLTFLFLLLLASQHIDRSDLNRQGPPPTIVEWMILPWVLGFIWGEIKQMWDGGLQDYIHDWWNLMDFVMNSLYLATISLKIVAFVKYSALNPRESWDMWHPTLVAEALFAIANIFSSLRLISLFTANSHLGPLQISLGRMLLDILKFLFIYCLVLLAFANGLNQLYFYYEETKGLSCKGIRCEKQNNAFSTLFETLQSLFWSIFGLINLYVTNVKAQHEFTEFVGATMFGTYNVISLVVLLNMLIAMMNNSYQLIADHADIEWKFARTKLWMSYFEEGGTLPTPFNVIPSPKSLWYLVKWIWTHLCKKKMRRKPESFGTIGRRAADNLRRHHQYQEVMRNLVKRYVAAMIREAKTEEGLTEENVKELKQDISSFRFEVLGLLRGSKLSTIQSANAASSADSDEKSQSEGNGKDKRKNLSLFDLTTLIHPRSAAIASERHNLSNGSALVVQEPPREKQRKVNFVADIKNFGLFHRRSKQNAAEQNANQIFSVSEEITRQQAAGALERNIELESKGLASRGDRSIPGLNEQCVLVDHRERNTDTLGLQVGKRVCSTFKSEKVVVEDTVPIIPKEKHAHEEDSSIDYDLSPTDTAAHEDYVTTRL
# [15] = HepG2 cell cytotoxicity, dose response, cytotoxicity control, plate reader, cherry-pick, antagonist series (AID 743416); type: functional, cell-based
# INS1 = assay: beta cell apoptosis inhibitors, cytokine rescue, dose response, luminescence, retest (AID 449756); type: functional, cell-based; conditions: Rattus norvegicus;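 note: cell death triggered by IL-1 beta plus TNF-alpha plus IFN-gamma mixture; protective hits raise ATP signal compared with cytokine alone wells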
# [16] = A549 cell cytotoxicity, dose response, cytotoxicity control, plate reader, cherry-pick, antagonist series (AID 743412); type: functional, cell-based
# [17] = HEK293 cell cytotoxicity, dose response, cytotoxicity control, plate reader, cherry-picked samples (AID 743446); type: functional, cell-based
# [18] = MC4R antagonists, dose response, counter-screen for LGR2 antagonist project, cell-based, plate reader, cherry pick (AID 743444); type: functional;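 note: transfected HEK 293 cells stimulated with alpha-MSH peptide; potency of inhibitors of the alpha-MSH evoked signal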
# [19] = target: T5, Lysine-specific demethylase 4C (Homo sapiens, UniProt Q9H3R0); assay: GASC-1 (JMJD2C) histone demethylase inhibitors, dose response, biochemical, DELFIA europium, cherry-picked samples (AID 488835); type: functional
# T5 sequence (Q9H3R0 whole entry): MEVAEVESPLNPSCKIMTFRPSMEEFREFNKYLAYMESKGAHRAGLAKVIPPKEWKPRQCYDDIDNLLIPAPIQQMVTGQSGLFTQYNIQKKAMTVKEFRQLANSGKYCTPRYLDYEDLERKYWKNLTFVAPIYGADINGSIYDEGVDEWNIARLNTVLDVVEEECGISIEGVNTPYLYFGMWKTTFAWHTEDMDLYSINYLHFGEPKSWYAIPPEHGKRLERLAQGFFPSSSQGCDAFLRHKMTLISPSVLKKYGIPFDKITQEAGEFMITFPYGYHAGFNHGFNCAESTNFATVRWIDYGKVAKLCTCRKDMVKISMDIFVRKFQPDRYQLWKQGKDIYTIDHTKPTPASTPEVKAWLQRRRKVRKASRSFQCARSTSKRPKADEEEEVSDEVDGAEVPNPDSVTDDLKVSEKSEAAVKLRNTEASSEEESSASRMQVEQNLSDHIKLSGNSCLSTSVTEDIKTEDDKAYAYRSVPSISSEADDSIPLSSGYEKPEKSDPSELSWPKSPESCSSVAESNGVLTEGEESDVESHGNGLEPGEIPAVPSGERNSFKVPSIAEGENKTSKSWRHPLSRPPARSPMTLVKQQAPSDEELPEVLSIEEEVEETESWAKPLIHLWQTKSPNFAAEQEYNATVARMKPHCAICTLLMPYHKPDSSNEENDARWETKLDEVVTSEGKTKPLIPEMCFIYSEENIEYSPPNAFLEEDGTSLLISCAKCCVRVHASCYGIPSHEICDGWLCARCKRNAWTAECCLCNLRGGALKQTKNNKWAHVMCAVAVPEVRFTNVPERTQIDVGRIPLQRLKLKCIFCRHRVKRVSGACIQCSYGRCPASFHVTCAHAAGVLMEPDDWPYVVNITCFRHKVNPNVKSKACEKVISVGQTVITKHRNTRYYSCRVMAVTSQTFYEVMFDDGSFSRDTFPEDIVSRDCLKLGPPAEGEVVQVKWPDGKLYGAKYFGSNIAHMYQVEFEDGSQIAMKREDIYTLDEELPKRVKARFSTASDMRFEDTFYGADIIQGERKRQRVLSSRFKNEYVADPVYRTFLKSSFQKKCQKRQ
# SUMO-activating enzyme [20] = target: T6, SUMO-activating enzyme (Homo sapiens, UniProt Q9UBT2); assay: inhibitors of in vitro SUMOylation cascade, primary screen, biochemical, HTRF, uHTS (AID 2006); type: protein-complex assay
# T6 sequence (Q9UBE0 whole entry): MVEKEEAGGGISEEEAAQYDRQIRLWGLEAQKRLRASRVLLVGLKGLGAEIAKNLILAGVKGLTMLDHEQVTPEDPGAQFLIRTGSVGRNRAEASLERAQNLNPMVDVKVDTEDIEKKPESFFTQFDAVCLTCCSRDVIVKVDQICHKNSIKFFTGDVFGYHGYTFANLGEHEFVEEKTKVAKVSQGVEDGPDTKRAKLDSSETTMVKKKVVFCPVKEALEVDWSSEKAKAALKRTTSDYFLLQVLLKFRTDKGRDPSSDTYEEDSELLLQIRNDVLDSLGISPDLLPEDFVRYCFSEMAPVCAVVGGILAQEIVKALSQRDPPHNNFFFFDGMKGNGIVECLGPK
# T6 sequence (Q9UBT2 whole entry): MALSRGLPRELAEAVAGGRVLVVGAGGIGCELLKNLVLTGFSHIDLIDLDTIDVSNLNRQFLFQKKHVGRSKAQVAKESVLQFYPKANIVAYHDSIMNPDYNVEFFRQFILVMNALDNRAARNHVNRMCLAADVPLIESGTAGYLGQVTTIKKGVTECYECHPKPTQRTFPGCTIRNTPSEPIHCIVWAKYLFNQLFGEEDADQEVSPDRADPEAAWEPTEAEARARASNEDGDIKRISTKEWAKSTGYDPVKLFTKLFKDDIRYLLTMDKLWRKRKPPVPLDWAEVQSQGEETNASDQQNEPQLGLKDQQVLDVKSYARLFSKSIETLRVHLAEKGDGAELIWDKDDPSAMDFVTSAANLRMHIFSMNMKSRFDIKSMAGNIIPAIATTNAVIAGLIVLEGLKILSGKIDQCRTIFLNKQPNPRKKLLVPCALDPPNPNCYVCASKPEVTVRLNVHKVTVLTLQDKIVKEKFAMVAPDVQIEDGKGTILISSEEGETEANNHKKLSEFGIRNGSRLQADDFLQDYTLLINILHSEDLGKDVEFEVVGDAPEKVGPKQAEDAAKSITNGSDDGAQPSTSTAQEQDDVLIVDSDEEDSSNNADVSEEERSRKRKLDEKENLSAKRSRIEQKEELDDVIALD
# SUMO-activating enzyme [21] = target: T6, SUMO-activating enzyme; assay: SUMOylation inhibitor hit validation, confirmation, SUMOylation inhibitor project, biochemical, AlphaScreen (AID 2018); type: functional
# [22] = target: Voltage-dependent T-type calcium channel subunit alpha-1H (Homo sapiens, UniProt O95180); type: functional;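 note: channel activity triggered by adding a high calcium stimulation buffer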
smiles,measurement,setting,value
CCc1ccc(-c2cc(C(=O)Nn3cnnc3)c3ccccc3n2)cc1,AC50,[1],12.5 µM (active)
same,EC50,HT-1080,> 50 µM (not active)
same,EC50,[2],2.73 µM (active)
O=C(Nc1ccccc1C(=O)Nc1nnc(C(F)(F)F)s1)c1ccccc1,IC50,Fatty acid synthase [3],80 µM (inactive)
same,CC50,[4],3.58 µM (active)
same,CC50,[5],> 20 µM (active)
same,EC50,[6],2.53 µM (active)
same,IC50,Fatty acid synthase [7],23.5 µM (inactive)
same,CC50,[8],3.9 µM (active)
same,IC50,[9],46.2 µM (inactive)
same,EC50,[10],> 120 µM (not active)
same,EC50,[11],19.3 µM (active)
same,EC50,[12],> 120 µM (not active)
same,EC50,[13],927 nM (active)
same,IC50,cells,15.3 µM (active)
CCOC(=O)/C(=C/C=C1\Sc2cc(OCC)c(OCC)cc2N1CC)C(C)=O,EC50,"Troponin, cardiac muscle",165 nM (active)
CC1Cc2ccccc2N1C(=O)CSc1nnc(NC(=O)Cc2cccs2)s1 (stereo not drawn),IC50,Estrogen receptor,34 µM (not active)
CN(C)C(CNC(=O)c1ccc2[nH]cnc2c1)c1ccccc1 (stereo not drawn),EC50,[14],473 nM (active)
COc1cc(CNCCO)cc(Cl)c1OCc1ccc(Cl)cc1Cl,AC50,[15],11.2 µM (active)
same,CC50,[4],12.5 µM (active)
same,CC50,[5],14.1 µM (active)
same,AC50,INS1,8.94 µM (active)
same,CC50,[8],15.1 µM (active)
same,AC50,[16],13.9 µM (active)
same,AC50,[17],15.6 µM (active)
same,AC50,[18],43.2 µM (active)
same,IC50,cells,24.5 µM (active)
C[C@H](CO)N1C[C@H](C)[C@@H](CN(C)Cc2ccc3c(c2)OCO3)Oc2c(NC(=O)C3CCCCC3)cccc2C1=O,AC50,[19],13.1 µM (active)
Cc1ccnc(N/C=C(\C#N)c2nc(-c3cccc(Br)c3)cs2)c1,EC50,"Troponin, cardiac muscle",761 nM (active)
CCN(c1ccccc1)S(=O)(=O)c1ccc2ncc(C(=O)NCCOC)c(O)c2c1,IC50,Estrogen receptor,27.9 µM (active)
Cc1ccc(NC(=O)Cn2nc(C(=O)Nc3ccc(C)cc3)ccc2=O)cc1,IC50,SUMO-activating enzyme [20],18.3 µM (active)
same,IC50,SUMO-activating enzyme [21],30.8 µM (active)
CCc1ccccc1N(C)C(=O)CCc1nc(-c2ccc(C)cc2)no1,EC50,[22],5.38 µM (active)
